This is an account of results in ChEMBL document CHEMBL1201862, “PubChem BioAssay data set” (2004).

The structures appear in SMILES notation.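 These data come from cells grown in 96-well plates and exposed to compound for 48 hours at five concentrations. GI50: concentration for 50% inhibition of growth.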 The source made the active and inactive calls. Rule as the data show it: active = GI50 up to about 1.1 µM and inactive = higher.

Test systems include SN12C; SK-MEL-5; UACC-62; SF-295; RPMI-8226; PC-3; HL-60; ACHN; SNB-19; MCF7; TK-10; MDA-N; NCI/ADR-RES; A549; CAKI-1; OVCAR-8; HOP-62; SW-620; DU-145; SF-268.
Common to all, as to assay: DTP human tumour cell line panel, 48 h

What is called GI50 is the concentration that inhibits growth by half. In the case of `CC(C)=CCC[C@@H](C)C1=C(O)C(=O)C(C)=C(N)C1=O`, the GI50 in the assay on SN12C was 35.5 µM (inactive); with SK-MEL-5 it was 20.4 µM (inactive); in the assay with UACC-62, 15.6 µM (inactive); with SF-295, 12.9 µM (inactive); in the assay with RPMI-8226 it was 27.3 µM (inactive); in the assay on PC-3 it was 47.8 µM (inactive). Also, the GI50 in the assay with HL-60 was 3.43 µM (inactive); in the assay on ACHN, 18 µM (inactive); in the assay with SNB-19 it was 32.5 µM (inactive); in the assay with MCF7, 50.8 µM (inactive); in the assay on TK-10, 50.2 µM (inactive); in the assay with MDA-N it was 24.6 µM (inactive). The GI50 was 3.9 µM (inactive) in the assay with NCI/ADR-RES; 25.8 µM (inactive) with A549; 24 µM (inactive) with CAKI-1; 17.9 µM (inactive) with OVCAR-8; 23.2 µM (inactive) in the assay with HOP-62; 43.1 µM (inactive) in the assay with SW-620. Further, the GI50 with DU-145 is 42.7 µM (inactive); in the assay on SF-268, 21.5 µM (inactive).

In the case of `COc1ccc2/c(=C/c3ccc(N(C)C)cc3)c3cc(-c4ccccc4)[n+](C)n3c2c1`, the concentration for 50% growth inhibition (GI50) was 0.223 µM (active) in the assay on SN12C; 0.0392 µM (active) in the assay on SK-MEL-5; 0.199 µM (active) in the assay on UACC-62; 0.194 µM (active) with SF-295; 0.0263 µM (active) in the assay on RPMI-8226; 0.09 µM (active) in the assay with PC-3. For the same compound, the GI50 was 0.0218 µM (active) with HL-60; 0.405 µM (active) in the assay with ACHN; 0.134 µM (active) in the assay with SNB-19; 0.126 µM (active) in the assay on MCF7; 0.239 µM (active) with TK-10; 0.0889 µM (active) in the assay with MDA-N. Further, the GI50 in the assay on NCI/ADR-RES was 9.66 µM (inactive); in the assay on A549, 0.261 µM (active); in the assay with CAKI-1, 1.2 µM (inactive); with OVCAR-8, 0.0568 µM (active); with HOP-62, 0.345 µM (active); with SW-620, 0.15 µM (active). Moreover, the GI50 with DU-145 was 0.179 µM (active); in the assay on SF-268, 0.292 µM (active).

Take `Cc1ccc(C2SCC(=O)N2c2ccc(-n3c(-c4ccccc4)nc4ccccc4c3=O)cc2)cc1` (stereo not given): the GI50 in the assay with SN12C is 37.8 µM (inactive); in the assay on SK-MEL-5 it was 11.6 µM (inactive); with UACC-62, 11.5 µM (inactive); with SF-295 it was 14.7 µM (inactive); in the assay on RPMI-8226, 13.7 µM (inactive); in the assay on PC-3, 12.7 µM (inactive). Also, the GI50 was 19.5 µM (inactive) with HL-60; 16.6 µM (inactive) in the assay on ACHN; 26.9 µM (inactive) in the assay on SNB-19; 22.6 µM (inactive) in the assay on MCF7; 50.9 µM (inactive) in the assay with TK-10; 20.9 µM (inactive) in the assay with MDA-N. Further, the GI50 in the assay on NCI/ADR-RES is 19.3 µM (inactive); in the assay on A549 it was 25.1 µM (inactive); with CAKI-1, 30.1 µM (inactive); in the assay with OVCAR-8, 16.2 µM (inactive); in the assay with HOP-62, 12.9 µM (inactive); in the assay on SW-620 it was 34.6 µM (inactive). Further, the GI50 was 31 µM (inactive) in the assay with DU-145 and 24.2 µM (inactive) with SF-268.

For `CCOC(=O)C1=C(C)NC(=S)NC1c1cccc(O)c1` (stereo not given) [MONASTROL], the GI50 in the assay with SN12C is 35.5 µM (inactive); with SK-MEL-5 it was 36.6 µM (inactive); in the assay with UACC-62, 36.6 µM (inactive); in the assay on SF-295 it was 30.5 µM (inactive); in the assay with RPMI-8226, 31 µM (inactive); in the assay on PC-3, 36.1 µM (inactive). Further, the GI50 was 25.7 µM (inactive) in the assay with HL-60; 85.3 µM (inactive) in the assay with ACHN; 76.4 µM (inactive) with SNB-19; 30 µM (inactive) with MCF7; > 100 µM (inactive) with TK-10; 18.2 µM (inactive) with MDA-N. For the same compound, the GI50 in the assay on NCI/ADR-RES was > 100 µM (inactive); in the assay with A549, 52.1 µM (inactive); with CAKI-1 it was 63.8 µM (inactive); with OVCAR-8, 57.7 µM (inactive); in the assay on HOP-62 it was 68.1 µM (inactive); in the assay on SW-620, 44.3 µM (inactive). For the same compound, the GI50 in the assay with DU-145 was 76.6 µM (inactive); with SF-268, 56.5 µM (inactive).
